The source of these data is US20040258633A1, “Composition containing monoterpenes for topical oral administration” (Gisol Ltd., priority 2000, published 2004).

This assay in a line: Example 5 salt solution mouth wash, periodontal index (PI). It counts as in vivo. Particulars: 10% salt solution mouth wash, 30 seconds, twice a day, for a week; point of origin = 1. As for the experimental part: Using solutions having a concentration of 10% the salts presented in table 3 below were applied after tooth brushing, in the form of a mouth wash. The mouth wash was applied for 30 seconds, twice a day, for a week. The following results were measured according to the periodontal index (PI): […]

SMILES strings stand for the structures.

For the molecule `[Cl-].[K+]` [Kcl], the “PI (periodontal index)” value was determined as 1.47.
Consider `[Cl-].[Na+]` [NaCl], for which the “PI (periodontal index)” value is 1.32.
Next, `[Br-].[Br-].[Mg+2]` [MgBr2]: 1.58.
